Measurements: article PMC4208696 (Biophysical chemistry, 2014)
Where two headings read alike, the source gives them in different places.

Legend:
CaM1–80 (CaM N-domain) = CaM1–80 (CaM N-domain) (Homo sapiens, UniProt P0DP23); type: binding, mammalian; settings: for ΔG (calcium-saturated): 10 mM CaCl2; for ΔG (calcium-saturated) / ΔG (apo): free energy corresponding to estimated Kd, 22 °C; for Fold Change = (Kd, Apo)/(Kd, Ca^2+): apo vs calcium-saturated; for abundance of the apo CaM-peptide complex: calculated, start of calcium titration, 6 μM CaM1–80 with 2 eq (12 μM) peptide
[1] = tested on: CaM76–148, sites III and IV; type: binding, mammalian; settings: for increase in calcium-binding affinity (more favorable than without peptide) / ΔΔG2^app = ΔG2^app(CaM + Peptide) − ΔG2 (CaM Alone): 2 eq peptide
CaM1–80, sites I and II = type: binding, mammalian; settings: 2 eq peptide
CaM1–148, sites I and II = type: binding, mammalian; settings: for increase in calcium-binding affinity (more favorable than without peptide) / ΔΔG2^app = ΔG2^app(CaM + Peptide) − ΔG2 (CaM Alone): 2 eq peptide, sites I and II
CaM76–148 (CaM C-domain) = CaM76–148 (CaM C-domain) (Homo sapiens, UniProt P0DP23); type: binding, mammalian; settings: for ΔG (calcium-saturated): 10 mM CaCl2; for ΔG (calcium-saturated) / ΔG (apo): free energy corresponding to estimated Kd, 22 °C; for Fold Change = (Kd, Apo)/(Kd, Ca^2+): apo vs calcium-saturated; for abundance of the apo CaM-peptide complex: calculated, start of calcium titration, 6 μM CaM76–148 with 2 eq (12 μM) peptide
[2] = tested on: CaM1–148, sites III and IV; type: binding, mammalian; settings: for increase in calcium-binding affinity (more favorable than without peptide) / ΔΔG2^app = ΔG2^app(CaM + Peptide) − ΔG2 (CaM Alone): 2 eq peptide, sites III and IV; for effect of N-domain on calcium-binding affinity of the C-domain: CaM1–148 vs CaM76–148, with 2 eq peptide
[3] = target: CaM1–148 (full-length calmodulin) (Homo sapiens, UniProt P0DP23); type: binding, mammalian; settings: for ΔG (calcium-saturated): 10 mM CaCl2; for ΔG (calcium-saturated) / ΔG (apo): free energy corresponding to estimated Kd, 22 °C; for Fold Change = (Kd, Apo)/(Kd, Ca^2+): apo vs calcium-saturated; for abundance of the apo CaM-peptide complex: calculated, start of calcium titration, 6 μM CaM1–148 with 2 eq (12 μM) peptide
full-length CaM = settings: absence of magnesium, ref [46]; cited from earlier work
[4] = CaM1–148 with 2 eq peptide (Fig. 5A)

| Substance | ΔG (calcium-saturated) (CaM1–80 (CaM N-domain)) | Fold Change = (Kd, Apo)/(Kd, Ca^2+) (CaM1–80 (CaM N-domain)) | ΔG (apo) (CaM1–80 (CaM N-domain); apo) | abundance of the apo CaM-peptide complex (CaM1–80 (CaM N-domain)) | increase in calcium-binding affinity (more favorable than without peptide) [1] | ΔΔG2^app = ΔG2^app(CaM + Peptide) − ΔG2 (CaM Alone) [1] | increase in calcium-binding affinity (more favorable than without peptide) (CaM1–80, sites I and II) | ΔΔG2^app = ΔG2^app(CaM + Peptide) − ΔG2 (CaM Alone) (CaM1–80, sites I and II) | increase in calcium-binding affinity (more favorable than without peptide) (CaM1–148, sites I and II) | ΔΔG2^app = ΔG2^app(CaM + Peptide) − ΔG2 (CaM Alone) (CaM1–148, sites I and II) | ΔG (calcium-saturated) (CaM76–148 (CaM C-domain)) | Fold Change = (Kd, Apo)/(Kd, Ca^2+) (CaM76–148 (CaM C-domain)) | ΔG (apo) (CaM76–148 (CaM C-domain)) | abundance of the apo CaM-peptide complex (CaM76–148 (CaM C-domain)) | increase in calcium-binding affinity (more favorable than without peptide) [2] | ΔΔG2^app = ΔG2^app(CaM + Peptide) − ΔG2 (CaM Alone) [2] | effect of N-domain on calcium-binding affinity of the C-domain [2] | ΔG (calcium-saturated) [3] | Fold Change = (Kd, Apo)/(Kd, Ca^2+) [3] | ΔG (apo) [3] | further results |
| --- | --- | --- | --- | --- | --- | --- | --- | --- | --- | --- | --- | --- | --- | --- | --- | --- | --- | --- | --- | --- | --- |
| Ac-KSKKAVWHKLLSKQRRRAVVACFRMTPLYN-NH2 [hRyR1(3614–3643)p] | -7.59 ± 0.22 kcal/mol | ~600 | -3.81 kcal/mol | ~ 1% | 3.41 ± 0.14 kcal/mol | -3.41 ± 0.14 kcal/mol | 2.62 ± 0.11 kcal/mol | -2.62 ± 0.11 kcal/mol | 3.78 ± 0.20 kcal/mol | -3.78 ± 0.18 kcal/mol | -10.80 kcal/mol | ~2500 | -6.22 ± 0.10 kcal/mol | ~ 33% | 3.83 ± 0.14 kcal/mol | -3.83 ± 0.14 kcal/mol | no significant effect | -12.15 kcal/mol | ~7000 | -7.02 ± 0.25 kcal/mol | weaker binding of CaM1–80 than CaM1–148 and CaM76–148 (fold) (CaM1–80 (CaM N-domain); abstract, CaM1–80 required calcium): ~ 250 fold; affinity less favorable than that of apo CaM1–148 (factor) (CaM1–80 (CaM N-domain); apo): 220; calcium dependence of interaction in words (CaM1–80 (CaM N-domain); apo and calcium-saturated): requires calcium for association; affinity higher than for hRyR1(1975–1999)p (fold) (CaM1–80 (CaM N-domain); calcium-saturated N-domain): approximately 5 fold; ΔΔG (hRyR1(3614–3643)p − hRyR1(1975–1999)p) (CaM1–80 (CaM N-domain); calcium-saturated N-domain): -0.97 ± 0.24 kcal/mol; ΔΔG2^app = ΔG2^app(CaM + Peptide) − ΔG2 (CaM Alone) (CaM1–148, sites I and II; listed as 3614): -3.78 ± 0.20 kcal/mol; effect of the presence of the C-domain on calcium-binding free energy of sites I and II (more favorable by) (CaM1–148, sites I and II; CaM1–148 vs CaM1–80, with 2 eq peptide): 1.16 ± 0.25 kcal/mol; midpoint of calcium titration, N-domain (CaM1–148, sites I and II; [4]): ~ 1 μM; Kd (CaM76–148 (CaM C-domain)): ≤ 10 nM; binds (Ca^2+)2-CaMC more favorably than apo CaMC (CaM76–148 (CaM C-domain); (Ca^2+)2-CaMC vs apo CaMC): ~ 5 kcal/mol; calcium dependence of interaction in words (CaM76–148 (CaM C-domain); apo and calcium-saturated): calcium-independent manner; C-domain fragment affinity more favorable than N-domain fragment (CaM76–148 (CaM C-domain); both in the presence and in the absence of calcium): 2 orders of magnitude; ΔΔG (hRyR1(3614–3643)p − hRyR1(1975–1999)p) (CaM76–148 (CaM C-domain); calcium-saturated C-domain): ≤ -4.00 kcal/mol; midpoint of calcium titration, C-domain [2, 4]: ~ 100 nM; Kd [3]: ≤ 1 nM; binding in words ([3]; apo (absence of calcium)): low micromolar Kd; abundance of the apo CaM-peptide complex [3]: ~ 64%; binding in words ([3]; high calcium concentrations): sub-nanomolar Kd |
| CaM76–148: CaM C-domain, encompassing residues 76 to 148 |  |  |  |  |  |  |  |  |  |  |  |  |  |  |  |  |  |  |  |  | ΔΔG2 (CaM76–148 vs CaM1–148) ([1]; CaM alone): 0.17 ± 0.04 kcal/mol |
| Ac-SRYGLLIKAFSMTAAETARRTREFR-NH2 [hRyR1(1975–1999)p] | -6.62 ± 0.09 kcal/mol | ~600 | -2.91 kcal/mol | < 2% | 0.69 ± 0.09 kcal/mol | -0.69 ± 0.09 kcal/mol | 0.82 ± 0.15 kcal/mol | -0.82 kcal/mol | 2.10 ± 0.29 kcal/mol | -2.10 kcal/mol | -6.80 ± 0.05 kcal/mol | ~70 | -4.30 kcal/mol | < 2% | 1.09 ± 0.23 kcal/mol | -1.09 ± 0.23 kcal/mol | no significant effect | -8.34 ± 0.01 kcal/mol | ~1300 | -4.14 kcal/mol | saturation of peptide (anisotropy) (CaM1–80 (CaM N-domain); calcium-saturated (10 mM CaCl2), at ~100 μM CaM1–80): greater than 85%; interaction with apo calmodulin (ITC) in words (full-length CaM): failed to detect an interaction; ΔΔG2^app = ΔG2^app(CaM + Peptide) − ΔG2 (CaM Alone) (CaM1–80, sites I and II; listed as 1975): -0.82 ± 0.15 kcal/mol; ΔΔG2^app = ΔG2^app(CaM + Peptide) − ΔG2 (CaM Alone) (CaM1–148, sites I and II; listed as 1975): -2.10 ± 0.29 kcal/mol; saturation of peptide (anisotropy) (CaM76–148 (CaM C-domain); calcium-saturated, at ~100 μM): greater than 85%; saturation of peptide (anisotropy) ([3]; calcium-saturated, at ~100 μM): greater than 85%; abundance of the apo CaM-peptide complex [3]: < 2% |
